Read-outs that look alike come from different tables or passages of the source.
How the values were obtained:
FSHR = target: T1, FSHR (Homo sapiens, UniProt P23945); test: EC50 of cyclic AMP production in CHO FSHR cells + EC20 FSH (Assay A); type: cell-based
T1 construct: expressed in transfected cells; host or cells: CHO (Cho-FSHR-LUC-1-1-43)
T1 sequence (P23945 18-695): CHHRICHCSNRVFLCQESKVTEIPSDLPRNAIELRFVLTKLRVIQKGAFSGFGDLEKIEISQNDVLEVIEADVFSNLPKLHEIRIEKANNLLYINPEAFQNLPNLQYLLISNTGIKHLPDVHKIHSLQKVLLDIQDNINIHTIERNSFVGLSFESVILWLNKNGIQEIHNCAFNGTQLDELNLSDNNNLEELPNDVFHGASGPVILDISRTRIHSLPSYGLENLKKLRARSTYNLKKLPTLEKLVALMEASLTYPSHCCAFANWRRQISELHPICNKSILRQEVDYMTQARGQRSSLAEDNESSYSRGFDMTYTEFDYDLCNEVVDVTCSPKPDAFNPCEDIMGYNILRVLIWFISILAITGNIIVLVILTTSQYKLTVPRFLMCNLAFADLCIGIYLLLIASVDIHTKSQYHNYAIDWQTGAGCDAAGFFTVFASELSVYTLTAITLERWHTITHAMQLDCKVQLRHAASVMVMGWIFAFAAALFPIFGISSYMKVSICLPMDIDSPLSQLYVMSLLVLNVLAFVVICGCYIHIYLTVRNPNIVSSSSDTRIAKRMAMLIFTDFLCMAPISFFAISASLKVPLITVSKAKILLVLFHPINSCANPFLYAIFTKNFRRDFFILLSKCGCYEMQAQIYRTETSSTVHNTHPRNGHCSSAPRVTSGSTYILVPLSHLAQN
Method in brief: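 cAMP HTRF read-out (665 nm/620 nm ratio) after 1 h at 37° C of Cho-FSHR-LUC cells treated with serially diluted test compound plus EC20 FSH ([…]) and IBMX (final 200 μM). Responses given as percent of maximal FSH-standard effect.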

[1] = target: T2, follicle-stimulating hormone (FSH) receptor (Rattus norvegicus, UniProt P20395); test: Rat granulosa EC50 FSH (Assay B); type: cell-based
T2 construct: endogenous in cells; host or cells: primary rat granulosa cells
T2 sequence (P20395 18-692): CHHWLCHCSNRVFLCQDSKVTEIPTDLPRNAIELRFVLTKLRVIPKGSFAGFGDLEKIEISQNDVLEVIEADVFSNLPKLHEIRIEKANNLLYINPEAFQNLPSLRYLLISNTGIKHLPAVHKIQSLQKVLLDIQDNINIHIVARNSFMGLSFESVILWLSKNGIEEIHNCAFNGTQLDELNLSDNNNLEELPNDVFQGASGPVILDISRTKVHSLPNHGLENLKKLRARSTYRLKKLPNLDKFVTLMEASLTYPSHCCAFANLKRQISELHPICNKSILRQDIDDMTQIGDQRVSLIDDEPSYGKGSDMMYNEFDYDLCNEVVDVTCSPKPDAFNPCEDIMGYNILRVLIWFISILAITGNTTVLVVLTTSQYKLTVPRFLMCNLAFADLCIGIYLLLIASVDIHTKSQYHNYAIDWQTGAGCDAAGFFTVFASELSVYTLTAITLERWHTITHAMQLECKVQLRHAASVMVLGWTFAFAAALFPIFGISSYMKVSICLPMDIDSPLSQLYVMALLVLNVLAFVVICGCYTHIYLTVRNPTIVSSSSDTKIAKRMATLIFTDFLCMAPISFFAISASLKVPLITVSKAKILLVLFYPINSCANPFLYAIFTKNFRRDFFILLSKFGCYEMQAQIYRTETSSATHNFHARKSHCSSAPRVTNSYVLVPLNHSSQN
Method: Rat Granulosa EC50 FSH (Assay B)
The assay was performed pursuant to the teaching of Yanofsky et al. (2006) Allosteric activation of the follicle-stimulating hormone (FSH) receptor by selective, nonpeptide agonists (JBC 281(19): 13226-13233, which is incorporated by reference in the disclosure of the invention).

[2] = CHO FSHR cells + EC20 FSH, cAMP HTRF, read-out: Assay A: EC50 of cyclic AMP production
[3] = rat granulosa cells, read-out: Assay B: Rat granulosa EC50 FSH

Row | Structure (SMILES) | EC50 (FSHR; [2]) | EC50 [1, 3] | EC50 (FSHR) | EC50 [1]
1 | COc1cc2c(cc1-c1ccnn1C)-c1c(c(C(=O)N3CCOCC3(C)C)nn1-c1ccsc1)CO2 [Compound 108, (3,3-Dimethyl-morpholin-4-yl)-[7-methoxy-8-(2-methyl-2H-pyrazol-3-yl)-1-thiophen-3-yl-1,4-dihydro-chromeno[4,3-c]pyrazol-3-yl]-methanone] | < 100 nM | 1000 to 5000 nM | – | –
2 | [2H]C([2H])([2H])OCC1(N(C(=O)c2nn(-c3ccsc3)c3c2COc2cc(OC)c(-c4ccn(C)n4)cc2-3)C([2H])([2H])[2H])COC1 [Compound 114] | < 100 nM | 1000 to 5000 nM | – | –
3 | [2H]C([2H])([2H])N(C(=O)c1nn(-c2ccsc2)c2c1COc1cc(OC)c(-c3ccn(C)n3)cc1-2)C1(C)COC1 [Compound 116] | < 100 nM | 1000 to 5000 nM | – | –
4 | [2H]C([2H])([2H])OCC1(N(C(=O)c2nn(-c3ccsc3)c3c2COc2cc(OC)c(-c4ccnn4C)cc2-3)C([2H])([2H])[2H])COC1 [Compound 119] | < 100 nM | 1000 to 5000 nM | – | –
5 | COc1cc2c(cc1-c1cccn1C)-c1c(c(C(=O)N3CCOCC3(C)C)nn1-c1ccsc1)CO2 [Compound 125, (3,3-Dimethyl-morpholin-4-yl)-[7-methoxy-8-(1-methyl-1H-pyrrol-2-yl)-1-thiophen-3-yl-1,4-dihydro-chromeno[4,3-c]pyrazol-3-yl]-methanone] | < 100 nM | 1000 to 5000 nM | – | –
6 | COc1cc2c(cc1C(O)C(C)C)-c1c(c(C(=O)N3CCOCC3(C)C)nn1-c1ccsc1)CO2 (centres unmarked) [Compound 131, (3,3-Dimethyl-morpholin-4-yl)-[8-(1-hydroxy-2-methyl-propyl)-7-methoxy-1-thiophen-3-yl-1,4-dihydro-chromeno[4,3-c]pyrazol-3-yl]-methanone] | < 100 nM | 1000 to 5000 nM | – | –
7 | COc1cc2c(cc1C1=NC([Si](C)(C)C)N=N1)-c1c(c(C(=O)N3CCOCC3(C)C)nn1-c1ccsc1)CO2 (centres unmarked) [Compound 139, (3,3-Dimethyl-morpholin-4-yl)-[7-methoxy-1-thiophen-3-yl-8-(5-trimethylsilanyl-5H-[1,2,4]triazol-3-yl)-1,4-dihydro-chromeno[4,3-c]pyrazol-3-yl]-methanone] | – | – | < 100 nM | 1000 to 5000 nM

Now from value to compound, other results behind:

Row | EC50 (FSHR; [2]) | EC50 [1, 3] | Structure (SMILES) | EC50 (FSHR) | EC50 [1]
8 | < 100 nM | 100 to 1000 nM | [2H]C([2H])([2H])OCC1(N(C(=O)c2nn(-c3ccsc3)c3c2COc2cc(OC)c(-c4ccn(C)c4)cc2-3)C([2H])([2H])[2H])COC1 [Compound 113] | – | –
9 | < 100 nM | 100 to 1000 nM | [2H]C([2H])([2H])N(C(=O)c1nn(-c2ccsc2)c2c1COc1cc(OC)c(-c3ccn(C)c3)cc1-2)C1(C)COC1 [Compound 115] | – | –
10 | < 100 nM | > 5000 nM | COc1cc2c(cc1-c1c(C)nn(C)c1C)-c1c(c(C(=O)N3CCOCC3(C)C)nn1-c1ccsc1)CO2 [Compound 121, (3,3-Dimethyl-morpholin-4-yl)-[7-methoxy-1-thiophen-3-yl-8-(1,3,5-trimethyl-1H-pyrazol-4-yl)-1,4-dihydro-chromeno[4,3-c]pyrazol-3-yl]-methanone] | – | –
11 | < 100 nM | > 5000 nM | COc1cc2c(cc1-c1cc(C)nn1C)-c1c(c(C(=O)N3CCOCC3(C)C)nn1-c1ccsc1)CO2 [Compound 122, (3,3-Dimethyl-morpholin-4-yl)-[8-(2,5-dimethyl-2H-pyrazol-3-yl)-7-methoxy-1-thiophen-3-yl-1,4-dihydro-chromeno[4,3-c]pyrazol-3-yl]-methanone] | – | –
12 | < 100 nM | 100 to 1000 nM | COc1cc2c(cc1-c1c(C)n[nH]c1C)-c1c(c(C(=O)N3CCOCC3(C)C)nn1-c1ccsc1)CO2 [Compound 126, (3,3-Dimethyl-morpholin-4-yl)-[8-(3,5-dimethyl-1H-pyrazol-4-yl)-7-methoxy-1-thiophen-3-yl-1,4-dihydro-chromeno[4,3-c]pyrazol-3-yl]-methanone] | – | –
13 | < 100 nM | 100 to 1000 nM | COc1cc2c(cc1-c1ncco1)-c1c(c(C(=O)N(C)C(C)(C)C)nn1-c1ccsc1)CO2 [Compound 132, 7-Methoxy-8-oxazol-2-yl-1-thiophen-3-yl-1,4-dihydro-chromeno[4,3-c]pyrazole-3-carboxylic acid tert-butyl-methyl-amide] | – | –
